PubChem BioAssay (NCI)
Several values for one entry are separate records, joined by “and”; a condition that tells them apart may be missing. Equal values may be shown once.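 Cells were grown in 96-well plates and exposed to each compound for 48 hours at five concentrations; endpoints were interpolated linearly between bracketing concentrations, or set to the highest concentration if not reached. Abbreviation: GI50, concentration required for 50% inhibition of growth. The concentration for full growth arrest is given as TGI.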

Legend:
Test in all cases: growth of human tumour cells (NCI), 48 h
[1] = tested on: 786-0 renal
[2] = tested on: HOP-92 NSCLC
[3] = tested on: LOX IMVI melanoma
[4] = tested on: MDA-MB-231 breast
[5] = tested on: MOLT-4 leukemia
[6] = tested on: NCI-H226 lung
[7] = tested on: OVCAR-4 ovarian
[8] = tested on: OVCAR-5 ovarian
[9] = tested on: SN12C renal
[10] = tested on: SNB-75 CNS

| Compound | TGI [1] | TGI [2] | TGI [3] | TGI [4] | TGI [5] | TGI [6] | TGI [7] | TGI [8] | TGI [9] | TGI [10] | GI50 [2] | GI50 [3] | GI50 [5] | GI50 [6] | GI50 [10] | GI50 [4] | GI50 [7] | GI50 [8] | GI50 [9] |
| --- | --- | --- | --- | --- | --- | --- | --- | --- | --- | --- | --- | --- | --- | --- | --- | --- | --- | --- | --- |
| Cc1cc(NS(=O)(=O)c2ccc(NC(NC(=O)C(C(F)(F)F)C(F)(F)F)(C(F)(F)F)C(F)(F)F)cc2)no1 | > 100 µM | > 100 µM | > 100 µM | > 100 µM | > 100 µM | > 100 µM | > 100 µM | > 100 µM | > 100 µM | > 100 µM |  |  |  |  |  |  |  |  |  |
| CCN(CCCl)c1cc(CN(C)C)cc(NC(=O)c2ccc(C(=O)Nc3cccc(CN(C)C)c3)cc2)c1 | 2.35 µM | 3.66 µM | 0.569 µM | > 100 µM | 0.904 µM | 17.2 µM | 6.08 µM | 93.2 µM | 10.6 µM | 3.18 µM |  |  |  |  |  |  |  |  |  |
| COP(=O)(OC)C(Nc1ccc(Cc2ccc(NC(c3ccco3)P(=O)(OC)OC)cc2)cc1)c1ccco1 (stereo not drawn) | > 100 µM | 35.1 µM | > 100 µM | 41.4 µM | > 100 µM | > 100 µM | > 100 µM | > 100 µM | > 100 µM | 10.2 µM |  |  |  |  |  |  |  |  |  |
| Cc1c(-c2ccccc2)[nH]n(C2=NCCN2)c1=O | > 100 µM | > 100 µM | > 100 µM | > 100 µM | > 100 µM | > 100 µM | > 100 µM | > 100 µM |  | > 100 µM |  |  |  |  |  |  |  |  |  |
| O=C(CC(C(=O)c1ccco1)c1ccco1)c1ccco1 (stereo not drawn) | > 100 µM | > 100 µM | > 100 µM | > 100 µM | > 100 µM | > 100 µM | > 100 µM | > 100 µM | > 100 µM | > 100 µM |  |  |  |  |  |  |  |  |  |
| Cc1cc(O)c(-c2cc(O)c(C)cc2O)cc1O | 8.55 µM | 6.22 µM | 16.6 µM | 33.3 µM | 5.21 µM | 46.4 µM | 20.9 µM | 32.9 µM | 13.6 µM | 29 µM |  |  |  |  |  |  |  |  |  |
| CCN(CC)CCO/N=C1\CC[C@H]2[C@@H]3CCc4cc(OC)ccc4[C@H]3CC[C@]12C | 3.27 µM | 7.25 µM | 2.04 µM | 8.54 µM | 3.72 µM | 4.69 µM | 22.4 µM | 12.4 µM | 8.12 µM | 9.25 µM |  |  |  |  |  |  |  |  |  |
| C=CCN1C(=O)/C(=C/c2ccc(C)cc2)N=C1SC1OC(COC(C)=O)C(OC(C)=O)C(OC(C)=O)C1OC(C)=O (stereo not drawn) | > 100 µM | > 100 µM and 53.4 µM | > 100 µM | > 100 µM | > 100 µM | > 100 µM and 85.6 µM | 64.1 µM | > 100 µM | > 100 µM | > 100 µM | > 100 µM and 11.6 µM | > 100 µM and 31.7 µM | > 59.9 µM and 14.6 µM | > 100 µM and 20.9 µM | 3.7 µM and 20.2 µM |  |  |  |  |
| COc1cc(C(O)c2ccc3c(c2)OCO3)cc(OC)c1OC (stereo not drawn) | > 100 µM | > 100 µM | > 100 µM | > 100 µM | > 100 µM | > 100 µM | > 100 µM | > 100 µM | > 100 µM | > 100 µM |  |  |  |  |  |  |  |  |  |
| COc1ccc(-n2nc(C)c3c(Nc4ccc(NC(=O)Nc5ccc(Cl)c(C(F)(F)F)c5)cc4)ncnc32)cc1 |  | 5.2 µM | 2.67 µM | 3.32 µM | 7.49 µM | 6.08 µM | > 100 µM | 4.71 µM | 9.37 µM | 4.55 µM | 1.81 µM | 1.34 µM | 1.82 µM | 2.21 µM | 0.553 µM | 1.47 µM | 2.85 µM | 1.83 µM | 2.63 µM |
| COc1ccc(Oc2cnn(C(Br)(Br)C(C)=O)c(=O)c2Br)cc1 | 27.4 µM | 29.4 µM | 24.4 µM | 32.5 µM | 3.56 µM | 46.6 µM | 32.6 µM | 32.2 µM | 28.5 µM | 29.4 µM |  |  |  |  |  |  |  |  |  |
| c1ccc([P+](CCCCCCCC[P+](c2ccccc2)(c2ccccc2)c2ccccc2)(c2ccccc2)c2ccccc2)cc1 | > 100 µM | 43.9 µM | 32.9 µM | > 100 µM | > 86 µM | > 100 µM | > 100 µM | > 91.1 µM | > 100 µM | 7.73 µM |  |  |  |  |  |  |  |  |  |
| C[C@]12CC[C@@H]3c4ccc(O)cc4CC[C@H]3[C@@H]1C/C(=C\c1ccc(C#N)cc1)C2=O | > 100 µM | 89.1 µM | > 100 µM | > 100 µM | > 100 µM | > 100 µM | > 100 µM | > 100 µM | > 100 µM | > 100 µM |  |  |  |  |  |  |  |  |  |
| CCNc1ncnc2sc(SCc3ccccc3)nc12 | > 100 µM | 81 µM | > 100 µM | > 100 µM | > 100 µM | > 100 µM | > 100 µM | > 100 µM | > 100 µM | > 100 µM |  |  |  |  |  |  |  |  |  |
| CC(C)C1=C(O)C2=C(C(=O)C1=O)C1(C)CCCC(C)(C)C1C(O)C2OC=O (stereo not drawn) | 19 µM | 20.1 µM | 11.6 µM | 22.5 µM | 6.91 µM | 20.2 µM | 22.8 µM | 30.9 µM | 23.2 µM | 23.7 µM |  |  |  |  |  |  |  |  |  |
| Nc1ccc(-c2nn3c(COc4ccc(Cl)cc4)nnc3s2)cc1 | > 100 µM | > 100 µM | > 100 µM | > 100 µM | > 100 µM | > 100 µM | > 100 µM | > 100 µM | > 100 µM | > 100 µM | 98 µM |  |  | 7.19 µM |  |  |  |  |  |
| CC(C)=CCC[C@@H](C)C1=C(O)C(N)=C(C)C(=O)C1=O | > 100 µM | > 100 µM | > 100 µM | > 100 µM | > 56.6 µM | > 100 µM | > 100 µM | > 100 µM | > 100 µM | > 100 µM |  |  |  |  |  |  |  |  |  |
| CON(C)C(=O)C1CCCO1 (stereo not drawn) | > 100 µM | > 100 µM | > 100 µM | > 100 µM | > 100 µM | > 100 µM | > 100 µM | > 100 µM | > 100 µM | > 100 µM |  |  |  |  |  |  |  |  |  |
| O=[N+]([O-])c1ccc2c(c1)c(N=NC(=S)Nc1ccc(Cl)cc1)c(O)n2CN1CCOCC1 | 16.7 µM | 21.2 µM | 23.8 µM | 30.6 µM | 2.97 µM | 23.7 µM | 21.6 µM |  | 15.7 µM | 25.8 µM |  |  |  |  |  |  |  |  |  |
